By IC50 is commonly meant the concentration at which inhibition is half-maximal.

The target of assay [1] is human PDE4D isozyme (Homo sapiens, UniProt Q08499). In words: IC50 for human PDE4D isozyme (Table 4). The class given is biochemical. The settings on record: read-out: IC50 for human PDE4D isozyme, hPDE4D. As for the experimental part: (§1) In-vitro assay for PDE4 enzymes. The in-vitro activity of PDE4 enzymes and the in-vitro potency of therapeutic agents described in the present invention was measured using a real-time, enzyme-coupled spectrophotometric assay. By using three different coupling enzymes, the product of the PDE4 reaction is coupled to the oxidation of the reduced form β-nicotinamide adenine dinucleotide (NADH), which dissipation can be monitored spectrophotmetrically at […]. Assay description. Buffer A containing 50 mM Tris, pH 8.0, 16 mM MgCl2 and 80 mM KCl is prepared and stored at room temperature. Buffer B containing 50 mM Tris, pH 8.0 is prepared and stored at toom temperature. Stock solutions of the following reagents are prepared in Buffer B and stored at −20° C.: Adenosine-5′-triphosphate (ATP), cyclic adenosine-5′-monophosphate (cAMP), phosphoenolpyruvate (PEP) and NADH. An assay mix is prepared by mixing Buffer A, […] (TCEP), ATP, PEP, NADH, myokinase (MK), pyruvate kinase (PK), lactate dehydroganese (LDH) and PDE4 to a final volume of 20 mL, which is enough for a single 96-well assay plate. Assay mix (180 μL) and test article (10 μL) in 1:1 DMSO/H2O mixture is pre-incubated at room temperature for 10 min. The enzymatic reaction is initiated by addition of cAMP (10 μL). Final concentration of all components in the assay (200 μL/well) are as follows: 10 mM MgCl2, 50 mM KCl, 5 mM TCEP, 2.5% DMSO, 0.4 mM NADH, 1 mM PEP, 0.04 mM ATP, 5 units MK, 1 unit PK, 1 unit LDH and appropriate amount of PDE4. Reaction progress curves are monitored in a plate reader capable of measuring light absorbance at 340 nm. A decrease in light absorbance at 340 nm is due to oxidation of NADH. Positive controls containing no test article and negative controls containing no test article and no cAMP are included on every assay plate. Reaction rates are determined from the slopes of the linear portions of the progress curves. All data is percent normalized with respect to controls and presented as percent inhibition.
Chain of human PDE4D isozyme (Q08499 whole entry): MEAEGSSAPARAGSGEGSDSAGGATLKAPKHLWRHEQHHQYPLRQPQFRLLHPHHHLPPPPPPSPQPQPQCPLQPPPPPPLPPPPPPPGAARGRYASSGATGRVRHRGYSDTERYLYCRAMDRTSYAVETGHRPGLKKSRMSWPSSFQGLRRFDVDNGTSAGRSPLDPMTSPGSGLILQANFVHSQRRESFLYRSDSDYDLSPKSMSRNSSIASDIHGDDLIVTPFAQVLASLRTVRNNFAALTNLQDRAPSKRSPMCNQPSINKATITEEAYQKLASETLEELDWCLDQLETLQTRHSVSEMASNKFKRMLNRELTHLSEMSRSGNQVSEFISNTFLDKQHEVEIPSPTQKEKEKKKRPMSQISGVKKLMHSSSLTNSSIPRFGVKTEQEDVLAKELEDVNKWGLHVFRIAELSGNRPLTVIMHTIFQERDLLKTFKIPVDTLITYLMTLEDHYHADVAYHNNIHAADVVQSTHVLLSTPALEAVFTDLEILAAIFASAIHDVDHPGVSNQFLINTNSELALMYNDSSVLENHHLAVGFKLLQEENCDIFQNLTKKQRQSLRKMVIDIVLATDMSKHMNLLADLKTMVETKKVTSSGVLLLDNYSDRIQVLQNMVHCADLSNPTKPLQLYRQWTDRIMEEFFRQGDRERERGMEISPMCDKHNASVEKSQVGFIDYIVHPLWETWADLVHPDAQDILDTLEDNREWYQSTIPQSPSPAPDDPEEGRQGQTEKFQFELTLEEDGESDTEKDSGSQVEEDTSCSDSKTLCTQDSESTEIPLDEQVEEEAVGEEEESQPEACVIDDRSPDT

The target of assay [2] is human PDE4B isozyme (Homo sapiens, UniProt Q07343). In words: IC50 for human PDE4B isozyme (Table 5). The class given is biochemical. The settings on record: read-out: IC50 for human PDE4B isozyme, hPDE4B. As for the experimental part:
as §1

Where only a bound is given, the exact number is not on record here.

Chain of human PDE4B isozyme (Q07343 whole entry): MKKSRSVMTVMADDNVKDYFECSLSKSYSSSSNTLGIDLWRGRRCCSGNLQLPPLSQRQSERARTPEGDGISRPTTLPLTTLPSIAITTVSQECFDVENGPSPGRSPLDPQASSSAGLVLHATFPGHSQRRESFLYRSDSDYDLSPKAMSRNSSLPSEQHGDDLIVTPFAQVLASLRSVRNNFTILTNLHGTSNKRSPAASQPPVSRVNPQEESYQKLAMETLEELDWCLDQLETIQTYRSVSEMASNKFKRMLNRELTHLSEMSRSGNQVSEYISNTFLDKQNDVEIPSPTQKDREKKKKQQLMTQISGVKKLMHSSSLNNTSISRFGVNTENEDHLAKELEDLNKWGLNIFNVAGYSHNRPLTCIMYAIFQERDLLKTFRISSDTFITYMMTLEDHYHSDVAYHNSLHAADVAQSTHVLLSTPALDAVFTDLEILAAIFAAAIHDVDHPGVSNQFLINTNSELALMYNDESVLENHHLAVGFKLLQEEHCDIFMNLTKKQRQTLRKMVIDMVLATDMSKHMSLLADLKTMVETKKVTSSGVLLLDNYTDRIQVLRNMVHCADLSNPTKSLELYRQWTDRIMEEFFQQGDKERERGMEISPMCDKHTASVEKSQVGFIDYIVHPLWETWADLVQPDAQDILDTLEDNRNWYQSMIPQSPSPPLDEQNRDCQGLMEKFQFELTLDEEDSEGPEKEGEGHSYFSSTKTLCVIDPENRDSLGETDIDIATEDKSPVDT

`Nc1nc2c(-c3cccc(Br)c3)cc(Cc3ccc(F)cc3)cc2s1` [BA-13, 4-(3-bromophenyl)-6-(4-fluorobenzyl)-1,3-benzothiazol-2-amine]: the half-maximal inhibitory concentration (IC50) in assay [1] and in assay [2] was less than 5 µM in each case.

Regarding `CSc1cccc(-c2cc(Cn3cccn3)cc3sc(N)nc23)c1` [BA-14, 4-(3-Methylsulfanyl-phenyl)-6-pyrazol-1-ylmethyl-benzothiazol-2-ylamine], the IC50 in assay [1] and in assay [2] was less than 5 µM throughout.

As for `Nc1ccc(Cc2cc3sc(N)nc3c(-c3cccc([N+](=O)[O-])c3)c2O)cc1` [BA-15, 2-Amino-6-(4-amino-benzyl)-4-(3-nitro-phenyl)-benzothiazol-5-ol], the IC50 in assay [1] and in assay [2] was less than 5 µM throughout.

With `Nc1ccc(Cc2cc3sc(N)nc3c(-c3cccc(Cl)c3)c2F)cc1` [BA-16, 6-(4-amino-benzyl)-4-(3-chloro-phenyl)-5-fluoro-benzothiazol-2-ylamine], the IC50 in assay [1] and in assay [2] was less than 5 µM in each case.

For the molecule `CS(=O)(=O)Nc1ccc(Cc2cc(-c3cccc(Cl)c3)c3nc(N)sc3c2)cc1` [BA-18, N-{4-[2-Amino-4-(3-chloro-phenyl)-benzothiazol-6-ylmethyl]-phenyl}-methanesulfonamide], the figures for the IC50 in assay [1] and in assay [2] were less than 5 µM and 5 to 20 µM, respectively.

In the case of `CS(=O)(=O)Nc1ccc(Cc2cc3sc(N)nc3c(-c3cccc(Cl)c3)c2F)cc1` [BA-19, N-{4-[2-amino-4-(3-chloro-phenyl)-5-fluoro-benzothiazol-6-ylmethyl]-phenyl}-methanesulfonamide], the figures for the IC50 in assay [1] and in assay [2] were less than 5 µM and 5 to 20 µM, respectively.

Turning to `CS(=O)(=O)Nc1ccc(Cc2cc(-c3cccc(Cl)c3)c3nc(N)oc3c2)cc1` [BA-20, N-{4-[2-Amino-4-(3-chloro-phenyl)-benzooxazol-6-ylmethyl]-phenyl}-methanesulfonamide], the IC50 in assay [1] and in assay [2] was less than 5 µM each time.

With `NC(=O)Nc1ccc(Cc2cc3sc(N)nc3c(-c3cccc(Cl)c3)c2F)cc1` [BA-21, {4-[2-amino-4-(3-chloro-phenyl)-5-fluoro-benzothiazol-6-ylmethyl]-phenyl}-urea], the half-maximal inhibitory concentration (IC50) in assay [1] and in assay [2] was less than 5 µM each time.

For the molecule `Cc1nc2c(-c3cccc(Cl)c3)cc(Cc3ccc(N)cc3)cc2o1` [BA-22, 4-{[4-(3-chlorophenyl)-2-methyl-1,3-benzoxazol-6-yl]methyl}aniline], the IC50 in assay [1] and in assay [2] was less than 5 µM throughout.

Take `Nc1ccc(Cc2cc3scnc3c(-c3cccc(Cl)c3)c2F)cc1` [BA-23, 4-[4-(3-chloro-phenyl)-5-fluoro-benzothiazol-6-ylmethyl]-phenylamine]: the 50% inhibitory concentration (IC50) in assay [1] and in assay [2] was less than 5 µM each time.

With `Cc1nc2c(-c3cccc(Cl)c3)cc(Cc3ccc(NC(N)=O)cc3)cc2o1` [BA-24, N-(4-{[4-(3-chlorophenyl)-2-methyl-1,3-benzoxazol-6-yl]methyl}phenyl)urea], the concentration for half-maximal inhibition (IC50) in assay [1] and in assay [2] was less than 5 µM each time.

For the molecule `Nc1ccc(Cc2cc(-c3cccc(Cl)c3)c3ncsc3c2)cc1` [BA-25, 4-[4-(3-Chloro-phenyl)-benzothiazol-6-ylmethyl]-phenylamine], the IC50 in assay [1] and in assay [2] was less than 5 µM throughout.

Turning to `Nc1ccc(Cc2cc(-c3cccc(Cl)c3)c3nc(N)sc3c2)cc1` [BA-26, 6-(4-Amino-benzyl)-4-(3-chloro-phenyl)-benzothiazol-2-ylamine], the IC50 in assay [1] and in assay [2] was less than 5 µM throughout.

Consider `NC(=O)Nc1ccc(Cc2cc(-c3cccc(Cl)c3)c3nc(N)sc3c2)cc1` [BA-27, {4-[2-Amino-4-(3-chloro-phenyl)-benzothiazol-6-ylmethyl]-phenyl}-urea], for which the half-maximal inhibitory concentration (IC50) in assay [1] and in assay [2] was less than 5 µM throughout.

In the case of `NC(=O)Nc1ccc(Cc2cc(-c3cccc(Cl)c3)c3ncsc3c2)cc1` [BA-28, {4-[4-(3-Chloro-phenyl)-benzothiazol-6-ylmethyl]-phenyl}-urea], the IC50 in assay [1] and in assay [2] was less than 5 µM in each case.

Take `CCNC(=O)Nc1ccc(Cc2cc3sc(N)nc3c(-c3cccc(Cl)c3)c2F)cc1` [BA-29, 1-{4-[2-Amino-4-(3-chloro-phenyl)-5-fluoro-benzothiazol-6-ylmethyl]-phenyl}-3-ethyl-urea]: the half-inhibitory concentration (IC50) in assay [1] and in assay [2] was less than 5 µM in each case.

For the molecule `CCNC(=O)Nc1ccc(Cc2cc3scnc3c(-c3cccc(Cl)c3)c2F)cc1` [BA-30, 1-{4-[4-(3-chloro-phenyl)-5-fluoro-benzothiazol-6-ylmethyl]-phenyl}-3-ethyl-urea], the IC50 in assay [1] and in assay [2] was less than 5 µM in each case.

Consider `NC(=O)N1CCN(Cc2cc3scnc3c(-c3cccc(Cl)c3)c2F)CC1` [BA-31, 4-[4-(3-Chloro-phenyl)-5-fluoro-benzothiazol-6-ylmethyl]-piperazine-1-carboxylic acid amide], for which the IC50 in assay [1] and in assay [2] was less than 5 µM each time.

Take `Nc1ccc(Cc2cc(-c3cccc(Cl)c3)c3nc(N)oc3c2)cc1` [BA-32, 6-(4-aminobenzyl)-4-(3-chlorophenyl)-1,3-benzoxazol-2-amine]: the IC50 in assay [1] and in assay [2] was less than 5 µM in each case.

For the molecule `CCNC(=O)Nc1ccc(Cc2cc3scnc3c(-c3cccc(Cl)c3)c2F)cn1` [BA-33, 1-[5-[4-(3-chloro-phenyl)-5-fluoro-benzothiazol-6-ylmethyl]-pyridin-2-yl]-3-ethyl-urea], the IC50 in assay [1] and in assay [2] was less than 5 µM in each case.

As for `COc1ccc(Cc2cc3scnc3c(-c3cccc(Cl)c3)c2F)cn1` [BA-38, 4-(3-chloro-phenyl)-5-fluoro-6-(6-methoxy-pyridin-3-ylmethyl)-benzothiazole], the IC50 in assay [1] and in assay [2] was less than 5 µM each time.

Consider `Oc1cccc(Cc2cc3scnc3c(-c3cccc(Cl)c3)c2F)c1` [BA-39, 3-[4-(3-chloro-phenyl)-5-fluoro-benzothiazol-6-ylmethyl]-phenol], for which the IC50 in assay [1] and in assay [2] was less than 5 µM each time.

As for `CCOC(=O)Nc1ccc(Cc2cc3scnc3c(-c3cccc(Cl)c3)c2F)cn1` [BA-40, {5-[4-(3-chloro-phenyl)-5-fluoro-benzothiazol-6-ylmethyl]-pyridin-2-yl}-carbamic acid ethyl ester], the IC50 in assay [1] and in assay [2] was less than 5 µM in each case.

Consider `Fc1c(CN2CCOCC2)cc2scnc2c1-c1cccc(Cl)c1` [BA-43, 4-(3-Chloro-phenyl)-5-fluoro-6-morpholin-4-ylmethyl-benzothiazole], for which the IC50 in assay [1] and in assay [2] was less than 5 µM each time.

On to `CC(=O)N1CCN(Cc2cc3scnc3c(-c3cccc(Cl)c3)c2F)CC1` [BA-44, 1-{4-[4-(3-Chloro-phenyl)-5-fluoro-benzothiazol-6-ylmethyl]-piperazin-1-yl}-ethanone], for which the IC50 was less than 5 µM in assay [1] and 5 to 20 µM in assay [2].

For the molecule `CCOC(=O)NC1CCN(Cc2cc3scnc3c(-c3cccc(Cl)c3)c2F)CC1` [BA-45, {1-[4-(3-Chloro-phenyl)-5-fluoro-benzothiazol-6-ylmethyl]-piperidin-4-yl}-carbamic acid ethyl ester], the IC50 was less than 5 µM in assay [1] and 5 to 20 µM in assay [2].

For `NC(=O)NC1CCN(Cc2cc3scnc3c(-c3cccc(Cl)c3)c2F)CC1` [BA-46, [1-[4-(3-Chloro-phenyl)-5-fluoro-benzothiazol-6-ylmethyl]-piperidin-4-yl]-urea], the half-inhibitory concentration (IC50) in assay [1] was less than 5 µM; in assay [2], 5 to 20 µM.

Turning to `Fc1c(CN2CCNCC2)cc2scnc2c1-c1cccc(Cl)c1` [BA-48, 4-(3-Chloro-phenyl)-5-fluoro-6-piperazin-1-ylmethyl-benzothiazole], the IC50 in assay [1] is less than 5 µM; in assay [2] it was 5 to 20 µM.

With `CCOC(=O)N1CCN(Cc2cc3scnc3c(-c3cccc(Cl)c3)c2F)CC1` [BA-49, 4-[4-(3-Chloro-phenyl)-5-fluoro-benzothiazol-6-ylmethyl]-piperazine-1-carboxylic acid ethyl ester], the IC50 in assay [1] and in assay [2] was less than 5 µM each time.

In the case of `CCNC(=O)N1CCN(Cc2cc3scnc3c(-c3cccc(Cl)c3)c2F)CC1` [BA-52, 4-[4-(3-chloro-phenyl)-5-fluoro-benzothiazol-6-ylmethyl]-piperazine-1-carboxylic acid ethylamide], the IC50 is less than 5 µM in assay [1] and 20 to 40 µM in assay [2].

As for `CCNC(=O)Nc1ccc(Cc2cc3scnc3c(-c3cccc(C#N)c3)c2F)cn1` [BA-53, 1-{5-[4-(3-cyano-phenyl)-5-fluoro-benzothiazol-6-ylmethyl]-pyridin-2-yl}-3-ethyl-urea], the IC50 in assay [1] and in assay [2] was less than 5 µM throughout.

Source of the values: US8883833B2, “Substituted benzoazole PDE4 inhibitors for treating inflammatory, cardiovascular and CNS disorders” (Decode Genetics EHF, priority 2007, dated 2014).
